In the OPERA property sets (Mansouri et al. 2018):

Conditions: for log10 BCF / log10 biotransformation half-life (days): fish

Row | Structure (SMILES) | melting point [°C] | boiling point [°C] | further results
1 | O=C(CC(=O)c1ccccc1)c1ccccc1 | 70.5 |  | ready biodegradability: readily biodegradable
2 | CCCCc1cccs1 |  | 182 | 
3 | Fc1cccc2[nH]nnc12 |  |  | log10 Koc (L/kg): 1.87
4 | CN1CCCC(CO)C1 (stereo not drawn) |  | 142 | 
5 | CCCCCCCCCCCC(=O)Oc1ccccc1 | 24.5 |  | 
6 | c1ccc2c(Nc3cccc4ccccc34)cccc2c1 | 115 |  | 
7 | CCCCCCCCCCCCCCCC(=O)OC(=O)CCCCCCCCCCCCCCC | 64 |  | 
8 | Clc1cc(Cl)c(C(Cl)Cl)cc1Cl |  | 280 | 
9 | CCCCC1C(=O)N(c2ccccc2)N(c2ccccc2)C1=O | 105 |  | 
10 | C=C(C(=O)O)C(F)(F)F | 51.5 |  | 
11 | Clc1cccc(C(Cl)(Cl)Cl)n1 | 63 |  | log10 Koc (L/kg): 2.62; log10 vapour pressure (mmHg): -2.32
12 | Brc1cc(Br)c(Oc2cc(Br)c(Br)cc2Br)cc1Br |  |  | logP: 7.9; log10 BCF: 6.13
13 | CCc1ccc2ccccc2n1 |  | 246 | 
14 | O=C(O)c1cc(Cl)ccc1O | 172 |  | 
15 | CC(=O)Nc1c(C)cccc1C | 183 |  | 
16 | O=C[C@@H](O)C(O)CO (stereo in doubt) | 129 |  | 
17 | O=C1C=CC(=O)C1 | 37 |  | 
18 | CCO[Si](C)(C)C |  | 76 | log10 vapour pressure (mmHg): 2.06
19 | BrCCCc1ccccc1 |  | 220 | 
20 | CC(C)=CCC1=C(O)C(C(=O)CC(C)C)=C(O)C(CC=C(C)C)(CC=C(C)C)C1=O | 93 |  | 
21 | CON(C)C(=O)Nc1ccc(Oc2ccc3c(c2)OC(C)(OC)CC3(C)C)cc1 (stereo not drawn) | 102 |  | 

Row | Structure (SMILES) | melting point [°C] | boiling point [°C] | further results
22 | CCCOB(OCCC)OCCC |  | 180 | 
23 | CCCCc1ccc2cc(C)c(C)cc2c1 |  |  | log10 biotransformation half-life (days): 0.24
24 | Clc1ccc(Cl)c(-c2ccc(Cl)c(Cl)c2)c1 | 106 |  | log10 Henry constant (atm·m³/mol): -4; log10 Koc (L/kg): 4.86; log10 vapour pressure (mmHg): -4.39; log10 BCF: 5.08; log10 biotransformation half-life (days): 2.65
25 | FC(F)(F)c1ccccc1Cl | -6 | 152 | log10 vapour pressure (mmHg): 0.706
26 | CCOC(=O)c1ccccc1S(=O)(=O)NC(=O)Nc1nc(Cl)cc(OC)n1 |  |  | log10 Koc (L/kg): 2.04
27 | c1cnc2c(c1)CCCC2 |  | 222 | 
28 | O=NN(c1ccccc1)c1ccccc1 | 66.5 |  | log10 Koc (L/kg): 3.08; ready biodegradability: readily biodegradable; log10 BCF: 1.33; log10 biotransformation half-life (days): -0.91
29 | CC(=O)N(C)c1ccccc1 | 103 | 256 | ready biodegradability: not readily biodegradable; log10 BCF: 0.18; log10 biotransformation half-life (days): -1.12
30 | CCCC[N+](CCCC)(CCCC)CCCC.[I-] | 148 |  | 
31 | O=C(OC(=O)C(F)(F)C(F)(F)F)C(F)(F)C(F)(F)F |  | 73 | 
32 | S=C=NCc1ccccc1 |  | 243 | log10 vapour pressure (mmHg): -1.81
33 | CC12CCC(CC1=O)C2(C)C (stereo not drawn) | 179 | 206 | log10 vapour pressure (mmHg): -0.665; ready biodegradability: readily biodegradable
34 | CCOC(=O)c1ccccc1C |  | 227 | 
35 | NCC(F)(F)C(F)(F)F |  | 49 | 
36 | COC(=O)CS |  | 148 | log10 vapour pressure (mmHg): 0.477
37 | CN(CCCN1c2ccccc2CCc2ccccc21)CC(=O)c1ccc(Cl)cc1 | 105 |  | 
38 | c1ccc2c(c1)Nc1ccccc1S2 | 188 | 371 | ready biodegradability: not readily biodegradable; log10 BCF: 2.55; log10 biotransformation half-life (days): 0.04
39 | NC(=O)c1cccnc1 | 130 |  | 
40 | O=C(Cl)C(F)(F)F | 146 | -27 | log10 Henry constant (atm·m³/mol): -3.35
41 | C[C@]12CC[C@@H]3c4ccc(O)cc4CC[C@H]3[C@@H]1CC[C@@H]2O | 200 |  | 
42 | O=C(Cl)c1ccccc1Cl | -4 | 238 | 

Row | Structure (SMILES) | melting point [°C] | boiling point [°C] | further results
43 | Clc1cccc2ncccc12 | 45 | 256 | 
44 | C=C(C=O)CC |  | 92.5 | 
45 | COCCN(C(=O)CCl)c1c(C)cccc1C | 46 | 320 | log10 vapour pressure (mmHg): -4.95
46 | OCCOc1ccc(Cl)cc1Cl |  |  | log10 vapour pressure (mmHg): -3.7
47 | Ic1cccc(I)c1I | 116 |  | 
48 | NS(=O)(=O)c1cc2c(cc1Cl)CN(C1CCCCC1)C2=O | 267 |  | 
49 | CCCC(C)(C)Br |  | 142 | 
50 | FC(F)(F)C(F)(Cl)C(F)(Cl)C(F)(F)F (stereo not drawn) | -68 | 63 | 
51 | O[C@@H]1CC[C@H](O)C1 | 35.5 |  | 
52 | Clc1cc(Cl)c2c(oc3c(Cl)cc(Cl)c(Cl)c32)c1Cl |  |  | log10 BCF: 2.96
53 | COc1nc(C)nc(N)n1 | 260 |  | 
54 | CC(S)CS (stereo not drawn) |  | 152 | 
55 | CCOC(=O)CCC=O |  | 162 | 
56 | COc1ccccc1Oc1ccccc1 | 79 | 288 | 
57 | CCOP(=O)(OCC)OC(=CCl)c1ccc(Cl)cc1Cl | -20 |  | log10 Koc (L/kg): 2.47; log10 vapour pressure (mmHg): -5.12
58 | C[n+]1ccc(-c2cc[n+](C)cc2)cc1 |  |  | log10 BCF: 0.28
59 | CC1C=CCC1 (stereo not drawn) |  | 64.9 | 
60 | CCOC(=O)CCBr |  | 179 | 
61 | O=Cc1ccc(O)c([N+](=O)[O-])c1 | 141 |  | log10 vapour pressure (mmHg): -3.05
62 | C=C(CC(=O)OCC)C(=O)OCC | 58.5 | 228 | 
63 | c1ccc(C2CO2)cc1 (stereo not drawn) | -35.6 | 194 | log10 vapour pressure (mmHg): -0.523; ready biodegradability: readily biodegradable

Row | Structure (SMILES) | melting point [°C] | boiling point [°C] | further results
64 | COCC#N |  | 119 | 
65 | CCOCCCl |  | 108 | 
66 | Fc1cc(F)c(F)nc1F |  | 102 | 
67 | Cc1cc(C(C)(C)C)cc(C)c1CC1=NCCN1 | 132 |  | 
68 | CCCCCCCCCc1ccc(O)cc1 | 42 |  | log10 Koc (L/kg): 3.84; log10 vapour pressure (mmHg): -3.09; log10 BCF: 2.58; log10 biotransformation half-life (days): -0.23
69 | Clc1cccc(C(Cl)(Cl)Cl)c1 | 0.6 | 255 | 
70 | CCOC(=O)CC(=O)CCl | -8 |  | 
71 | Cc1ccc2nc(C)[nH]c2c1 | 203 | 350 | 
72 | C1CCNC1 | -57.8 | 86.5 | log10 Henry constant (atm·m³/mol): -5.62; log10 Koa: 4.07; log10 vapour pressure (mmHg): 1.8
73 | CC(C)CC(C)C(C)(C)C (stereo not drawn) |  | 148 | 
74 | CCCCCCOC(=O)c1ccccc1 |  | 272 | 
75 | O=C1c2ccccc2C(=O)c2c(O)cccc21 | 194 |  | log10 vapour pressure (mmHg): -6.68; ready biodegradability: not readily biodegradable; log10 BCF: 2.25
76 | CCOc1ccccc1F | -16.7 | 171 | 
77 | CCN(CC)CCNC(=O)c1cc(S(C)(=O)=O)ccc1OC | 124 |  | 
78 | CC1OC(=O)C=C2C3=C(OC(C)(C)CC3)C(=O)C(O)=C21 (stereo not drawn) | 230 |  | 
79 | N#CCCC(Br)(C#N)CBr (stereo not drawn) | 52 |  | 
80 | C=CCOC=O |  | 83.6 | 
81 | C#CC(C)=CC |  | 66.5 | 
82 | CC1=CCC2C(C1)C2(C)C (stereo not drawn) |  | 170 | 
83 | CSC#N | -5 | 133 | log10 vapour pressure (mmHg): 1.08
